Measurements as given in PMC11661291, “Unique structural features in a deep-sea CYP51 relate to high pressure adaptation” (Research Square, 2024).

How the values were obtained:
C. armatus CYP51 [1] = target: T1, C. armatus CYP51 (Coryphaenoides armatus, UniProt Z9AQN8BZD8); assay: Reconstituted catalytic activity, steady-state kinetic analysis of sterol 14α-demethylation; conditions: 0.25 μM P450, 1 μM CPR, 1 min reaction, 37 °C
Method: (§1) The samples were preincubated for 3 min at 37 °C in a shaking water bath, the reaction was initiated by the addition of 100 μM NADPH and stopped by the extraction of sterols with ethyl acetate. The extracted sterols were dried, dissolved in 100 μL of methanol, and the products were analyzed by reversed-phase HPLC equipped with a β-RAM detector (INUS Systems) using a Nova-Pak 3.9 mm × 150 mm (4 μm) octadecylsilane (C18) HPLC column. The products were separated with an isocratic mobile phase composed of acetonitrile and methanol (4:1 (v/v)) at a flow rate of 0.75 mL/min[9]. Michaelis-Menten parameters were calculated using GraphPad Prism. The kcat and Km values for each reaction were determined by fitting the data to a Michaelis–Menten hyperbola, with the reaction rates (nmol product formed/nmol P450/min) being plotted versus total substrate concentration.

C. armatus CYP51 [2] = target: T1, C. armatus CYP51; assay: Spectral titrations with sterol substrates (type I spectral response); conditions: for Low-to-high spin state transition in the heme iron / Change in absorbance, ΔAmax per μM P450: sterol 0.25–3 μM; for Low-to-high spin state transition in the heme iron: 22 °C; for Change in absorbance, ΔAmax per μM P450: optical pathlength 1 cm
Method: Equal amounts of the HPCD solution were added to the reference cuvette to correct for the solvent-induced spectral perturbations, and the difference spectra were taken in the wavelength range of 350–500 nm. The apparent spectral dissociation constants of the enzyme-substrate complex (Kd) were calculated in GraphPad Prism software by fitting the data for the substrate-induced absorbance changes Δ(A390-A423) versus substrate concentration to a one site-total binding equation (binding-saturation).

C. armatus CYP51 [3] = target: T1, C. armatus CYP51; assay: Stabilizing effect of TMAO registered by CO-binding spectra
Method: Absorption spectra (270–700 nm) were recorded at 22 °C using a dual-beam Shimadzu UV-2600i spectrophotometer and software UVProbe2.71. The P450 concentration was determined from the Soret band absorbance in the absolute spectrum, the extinction coefficient 117 mM^−1 cm^−1 for the low-spin ferric form or 91 mM^−1 cm^−1 for the reduced (ferrous) carbon monoxide (CO) complex in the difference spectra[51].The spin state of the P450 samples was estimated from the absolute spectra using the ratio (ΔA393–470/ΔA417–470), with values of 0.35 and 2.0 corresponding to 100% low- and 100% high-spin iron, respectively.
After data collection the crystals were dissolved in phosphate buffered saline (PBS, Gibco). UV-visible absolute absorption spectra (270–700 nm) were recorded at room temperature using a single beam spectrophotometer NanoVue,4282 (CE Healthcare) (Figure S4A). CO-binding difference absorption spectra (400–500 nm) were recorded using a dual-beam Shimadzu UV-2600i spectrophotometer as follows. The CO gas was bubbled through the protein solution, which was then divided into two cuvettes serving as a blank and standard, respectively. The baseline was taken, and a few crystals of sodium dithionate were added to the sample cuvette (Figure S4B). The corresponding spectra of the original protein sample that was used for crystallization were taken for comparison.

C. armatus CYP51 [4] = target: T1, C. armatus CYP51; assay: Inhibition of reconstituted enzymatic activity (decrease in substrate conversion in 1 h reaction); conditions: enzyme/inhibitor/substrate 1:50:50, 60 min, 0.5 μM P450
Method: as §1

human CYP51 [5] = target: human CYP51; design: method as in PMID 27313059; conditions: azole ligand; read-out: apparent dissociation constant (Kd); cited from earlier work
C. armatus CYP51 [6] = target: T1, C. armatus CYP51; assay: Spectral titrations with azole-based ligands
Method: Titrations with azole-based compounds were carried out at 0.5 μM P450 concentration in 5-cm optical path length cuvettes. Aliquots of 0.1 mM compounds dissolved in dimethyl sulfoxide (DMSO) were added to the sample cuvette, with each titration step being 0.1 μM. At each step, the corresponding volume of DMSO was added to the reference cuvette. The apparent spectral dissociation constants (Kd) were calculated in GraphPad Prism software as described for human CYP51[21].

human CYP51 [7] = system: human CYP51; design: method as in PMID 27313059; conditions: 50-fold molar excess of inhibitor over enzyme, 1-hour reaction; cited from earlier work
[8] = system: C=C(CC[C@@H](C)C1CC[C@@]2(C)C3=C(CC[C@]12C)[C@@]1(C)CC[C@H](O)C(C)(C)C1CC3)C(C)C; assay: purified protein, by the assay type; conditions: other: 0.25 μM P450, 1 μM CPR, 1 min reaction, 37 °C
Method: as §1

[9] = system: CC(C)=CCC[C@@H](C)[C@H]1CC[C@@]2(C)C3=C(CC[C@]12C)[C@@]1(C)CC[C@H](O)C(C)(C)[C@@H]1CC3; assay: purified protein, by the assay type; conditions: other: 0.25 μM P450, 1 μM CPR, 1 min reaction, 37 °C
Method: as §1

[10] = system: C=C(CC[C@@H](C)[C@H]1CC[C@@]2(C)C3=C(CC[C@]12C)[C@@]1(C)CC[C@H](O)[C@@H](C)[C@@H]1CC3)C(C)C; assay: purified protein, by the assay type; conditions: other: 0.25 μM P450, 1 μM CPR, 1 min reaction, 37 °C
Method: as §1

T1 sequence (Z9AQN8BZD8 6-449 limits assumed): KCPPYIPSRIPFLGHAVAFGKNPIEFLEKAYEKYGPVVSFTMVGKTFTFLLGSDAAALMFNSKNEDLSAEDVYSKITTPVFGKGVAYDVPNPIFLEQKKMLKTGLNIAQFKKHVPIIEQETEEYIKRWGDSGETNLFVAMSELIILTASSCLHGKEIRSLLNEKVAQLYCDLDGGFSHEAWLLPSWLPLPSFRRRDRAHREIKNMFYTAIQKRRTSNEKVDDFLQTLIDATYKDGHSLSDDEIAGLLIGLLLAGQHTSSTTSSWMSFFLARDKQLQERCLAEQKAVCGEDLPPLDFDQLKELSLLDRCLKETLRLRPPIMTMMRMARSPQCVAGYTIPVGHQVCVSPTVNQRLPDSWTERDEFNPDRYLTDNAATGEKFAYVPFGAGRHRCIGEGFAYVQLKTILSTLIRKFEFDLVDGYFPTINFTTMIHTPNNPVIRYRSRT

**Q.** For C=C(CC[C@@H](C)C1CC[C@@]2(C)C3=C(CC[C@]12C)[C@@]1(C)CC[C@H](O)C(C)(C)C1CC3)C(C)C (stereo partly drawn), which kcat (C. armatus CYP51 [1]) is on record?
**A.** Its kcat is 1.03 s⁻¹.

**Q.** And the Kd (C. armatus CYP51 [2]; read-out: Kd (apparent spectral dissociation constant), sterol substrate, P450 2 μM)?
**A.** The Kd was 1.02 µM.

**Q.** What about the “Low-to-high spin state transition in the heme iron” value (C. armatus CYP51 [2]; P450 2 μM) of the same compound?
**A.** Its value is 27%.

**Q.** What about the “Change in absorbance, ΔAmax per μM P450” value (C. armatus CYP51 [2]; P450 2 μM) of the same compound?
**A.** Its value is 30.

**Q.** For CC(C)=CCC[C@@H](C)[C@H]1CC[C@@]2(C)C3=C(CC[C@]12C)[C@@]1(C)CC[C@H](O)C(C)(C)[C@@H]1CC3 [Lanosterol], which kcat (C. armatus CYP51 [1]) is on record?
**A.** Its kcat is 0.797 s⁻¹.

**Q.** What about the Kd (C. armatus CYP51 [2]) of the same compound?
**A.** The Kd was 0.77 µM.

**Q.** What about the “Low-to-high spin state transition in the heme iron” value (C. armatus CYP51 [2]; P450 2 μM) of the same compound?
**A.** The value was 22%.

**Q.** What about the “Change in absorbance, ΔAmax per μM P450” value (C. armatus CYP51 [2]; P450 2 μM) of the same compound?
**A.** The value was 24.

**Q.** Which results are given for C=C(CC[C@@H](C)[C@H]1CC[C@@]2(C)C3=C(CC[C@]12C)[C@@]1(C)CC[C@H](O)[C@@H](C)[C@@H]1CC3)C(C)C [Obtusifoliol]?
**A.** kcat (C. armatus CYP51 [1]): 0.865 s⁻¹; Kd (C. armatus CYP51 [2]): 0.56 µM; Low-to-high spin state transition in the heme iron (C. armatus CYP51 [2]; P450 2 μM): 13%; Change in absorbance, ΔAmax per μM P450 (C. armatus CYP51 [2]; P450 2 μM): 14

**Q.** Which “spectral response in the heme iron” value (C. armatus CYP51 [3]) does the source give for C[N+](C)(C)[O-] [TMAO, trimethylamine oxide] here?
**A.** The value was “does not cause any spectral response”.

**Q.** And the “P450 recovery after overnight incubation (CO-binding spectra)” value (C. armatus CYP51 [3]; 10 μM TMAO, overnight storage at 4 °C in PBS)?
**A.** The value was 90%.

**Q.** Which “inhibition of C. armatus CYP51 activity” value (C. armatus CYP51 [4]) does the source give for N#Cc1ccc(COc2ccc(C#Cc3ccc(C(F)(F)[C@](O)(Cn4cnnn4)c4ccc(F)cc4F)nc3)cc2)cc1 [VT-1598] here?
**A.** Its value is “did not have any inhibitory effect”.

**Q.** Which “inhibition of C. armatus CYP51 activity” value (C. armatus CYP51 [4]) does the source give for C[C@@H](c1nc(-c2ccc(C#N)cc2)cs1)[C@](O)(Cn1cncn1)c1cc(F)ccc1F [isavuconazole] here?
**A.** The value was “did not have any inhibitory effect”.

**Q.** With CCC(C)n1ncn(-c2ccc(N3CCN(c4ccc(OCC5COC(Cn6cncn6)(c6ccc(Cl)cc6Cl)O5)cc4)CC3)cc2)c1=O (stereo not drawn) [itraconazole] as the compound, how does the “inhibition of C. armatus CYP51 activity” value (C. armatus CYP51 [4]) read?
**A.** Its value is “did not have any inhibitory effect”.

**Q.** What about the Kd (human CYP51 [5]) of the same compound?
**A.** The Kd was 1.29 µM.

**Q.** And the Kd (C. armatus CYP51 [6])?
**A.** Its Kd is 0.62 µM.

**Q.** For CC(=O)N1CCN(c2ccc(OCC3COC(Cn4ccnc4)(c4ccc(Cl)cc4Cl)O3)cc2)CC1 (stereo not drawn) [ketoconazole], which “lanosterol converted in presence of inhibitor” value (human CYP51 [7]) is on record?
**A.** Its value is 100%.

**Q.** What about the Kd (human CYP51 [5]) of the same compound?
**A.** Its Kd is 0.07 µM.

**Q.** What about the Kd (C. armatus CYP51 [6]) of the same compound?
**A.** The Kd was 0.01 µM.

**Q.** For O[C@@](Cn1cnnn1)(c1ccc(F)cc1F)C(F)(F)c1ccc(-c2ccc(OCC(F)(F)F)cc2)cn1 [oteseconazole], which “inhibition of C. armatus CYP51 activity” value (C. armatus CYP51 [4]) is on record?
**A.** Its value is “did not have any inhibitory effect”.

**Q.** For CC[C@@H]([C@H](C)O)n1ncn(-c2ccc(N3CCN(c4ccc(OC[C@@H]5CO[C@@](Cn6cncn6)(c6ccc(F)cc6F)C5)cc4)CC3)cc2)c1=O [posaconazole], which “inhibition of C. armatus CYP51 activity” value (C. armatus CYP51 [4]) is on record?
**A.** The value was “did not have any inhibitory effect”.

**Q.** Which “inhibition of C. armatus CYP51 activity” value (C. armatus CYP51 [4]) does the source give for C[C@@H](c1ncncc1F)[C@](O)(Cn1cncn1)c1ccc(F)cc1F [voriconazole] here?
**A.** Its value is “did not have any inhibitory effect”.

**Q.** What about the Kd (human CYP51 [5]) of the same compound?
**A.** Its Kd is 2.53 µM.

**Q.** What about the Kd (C. armatus CYP51 [6]) of the same compound?
**A.** Its Kd is 0.61 µM.

**Q.** For “C. armatus CYP51 (Coryphaenoides armatus)”, which Km [8] is on record?
**A.** Its Km is 13.0 µM.

**Q.** What about the kcat [8] of the same compound?
**A.** The kcat was 1.03 s⁻¹.

**Q.** And the kcat/Km [8]?
**A.** The kcat/Km was 80000 M⁻¹ s⁻¹.

**Q.** What about the Km [9] of the same compound?
**A.** The Km was 8.1 µM.

**Q.** And the kcat [9]?
**A.** Its kcat is 0.797 s⁻¹.

**Q.** And the kcat/Km [9]?
**A.** The kcat/Km was 98300 M⁻¹ s⁻¹.

**Q.** And the Km [10]?
**A.** Its Km is 7.9 µM.

**Q.** And the kcat [10]?
**A.** The kcat was 0.865 s⁻¹.

**Q.** And the kcat/Km [10]?
**A.** The kcat/Km was 110000 M⁻¹ s⁻¹.
